Source: patent US6737383B1, “Herbicidal oxadiazolidines” (priority 1999, dated 2004)

Assays:
rape = assay: Test B pre/postemergence rape; type: in vivo, Brassica napus
Outline: (§1)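 Test chemicals in a non-phytotoxic solvent mixture with surfactant were sprayed preemergence onto planted seeds and postemergence onto plants 2 to 18 cm tall (1- to 4-leaf stage). After twelve to sixteen days in a greenhouse, injury was visually rated against untreated controls from 0 (no effect) to 10 (complete control).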

sugar beet = assay: Test B pre/postemergence sugar beet; type: in vivo, Beta vulgaris
Outline: as §1

surinam grass = assay: Test B pre/postemergence surinam grass; type: in vivo, Brachiaria decumbens
Outline: as §1

crabgrass = assay: Test B pre/postemergence crabgrass; type: in vivo, Digitaria sanguinalis
Outline: as §1

purple nutsedge = assay: Test B pre/postemergence purple nutsedge; type: in vivo, Cyperus rotundus
Outline: as §1

bedstraw = assay: Test B pre/postemergence bedstraw; type: in vivo, Galium aparine
Outline: as §1

wild oat = assay: Test B pre/postemergence wild oat; type: in vivo, Avena fatua
Outline: as §1

corn = assay: Test B pre/postemergence corn; type: in vivo, Zea mays
Outline: as §1

morningglory = assay: Test B pre/postemergence morningglory; type: in vivo, Ipomoea hederacea
Outline: as §1

giant foxtail = assay: Test B pre/postemergence giant foxtail; type: in vivo, Setaria faberii
Outline: as §1

pigweed = assay: Test B pre/postemergence pigweed; type: in vivo, Amaranthus retroflexus
Outline: as §1

soybean = assay: Test B pre/postemergence soybean; type: in vivo, Glycine max
Outline: as §1

blackgrass = assay: Test B pre/postemergence blackgrass; type: in vivo, Alopecurus myosuroides
Outline: as §1

wheat = assay: Test B pre/postemergence wheat; type: in vivo, Triticum aestivum
Outline: as §1

cocklebur = assay: Test B pre/postemergence cocklebur; type: in vivo, Xanthium strumarium
Outline: as §1

velvetleaf = assay: Test B pre/postemergence velvetleaf; type: in vivo, Abutilon theophrasti
Outline: as §1

[1] = Postemergence, Rate 31 g/ha, visual rating, scale 0 to 10 (0 no effect, 10 complete control)
[2] = Postemergence, Rate 125 g/ha, scale 0 to 10, 0 is no effect, 10 is complete control
[3] = Preemergence, Rate 62 g/ha, scale 0 to 10 (0 no effect, 10 complete control)
[4] = Preemergence, Rate 125 g/ha, scale 0 to 10, 0 is no effect, 10 is complete control
[5] = Rate 250 g/ha, Postemergence, scale of 0 to 10 where 0 is no effect and 10 is complete control
[6] = Postemergence, Rate 62 g/ha, scale of 0 to 10, 0 is no effect, 10 is complete control
[7] = Preemergence, Rate 31 g/ha, visual rating, scale 0 to 10 (0 no effect, 10 complete control)

SMILES: CC(C)N(C(=O)n1oc(=O)n(C[Si](C)(C)C)c1=O)c1ccc(Cl)cc1 [Compound 548]
- Rape plant response rating (rape; [1]): 0
- Rape plant response rating (rape; [2]): 0
- Rape plant response rating (rape; [3]): 0
- Rape plant response rating (rape; [4]): 0
- Rape plant response rating (0 to 10 scale) (rape; Preemergence, Rate 250 g/ha): 2
- Plant response rating, Rape (rape; [5]): 7
- Sugarbeets plant response rating (sugar beet; [1]): 0
- Sugarbeets plant response rating (sugar beet; [6]): 0
- Sugarbeets plant response rating (sugar beet; [2]): 0
- Sugarbeets plant response rating (sugar beet; [3]): 0
- Sugarbeets plant response rating (sugar beet; [4]): 0
- Sugarbeets plant response rating (0 to 10 scale) (sugar beet; Preemergence, Rate 250 g/ha): 2
- Plant response rating, Sugarbeets (sugar beet; [5]): 3
- B. signalgrass plant response rating (surinam grass; [1]): 0
- B. signalgrass plant response rating (surinam grass; [6]): 0
- B. signalgrass plant response rating (surinam grass; [2]): 0
- B. signalgrass plant response rating (surinam grass; [7]): 0
- B. signalgrass plant response rating (surinam grass; [3]): 0
- B. signalgrass plant response rating (surinam grass; [4]): 2
- B. signalgrass plant response rating (0 to 10 scale, 0 is no effect, 10 is complete control) (surinam grass; Preemergence, Rate 250 g/ha): 3
- Plant response rating, B. signalgrass (surinam grass; [5]): 0
- Crabgrass plant response rating (crabgrass; [1]): 0
- Crabgrass plant response rating (crabgrass; [2]): 5
- Crabgrass plant response rating (crabgrass; [7]): 4
- Crabgrass plant response rating (crabgrass; [3]): 9
- Crabgrass plant response rating (crabgrass; [4]): 9
- Crabgrass plant response rating (0 to 10 scale) (crabgrass; Preemergence, Rate 250 g/ha): 10
- Nutsedge plant response rating (purple nutsedge; [1]): 0
- Nutsedge plant response rating (purple nutsedge; [2]): 0
- Nutsedge plant response rating (purple nutsedge; [3]): 0
- Nutsedge plant response rating (purple nutsedge; [4]): 0
- Nutsedge plant response rating (0 to 10 scale) (purple nutsedge; Preemergence, Rate 250 g/ha): 0
- Plant response rating, Nutsedge (purple nutsedge; [5]): 0
- Bedstraw plant response rating (bedstraw; [1]): 0
- Bedstraw plant response rating (bedstraw; [6]): 0
- Bedstraw plant response rating (bedstraw; [2]): 4
- Bedstraw plant response rating (bedstraw; [7]): 9
- Bedstraw plant response rating (bedstraw; [3]): 8
- Bedstraw plant response rating (bedstraw; [4]): 10
- Bedstraw plant response rating (0 to 10 scale) (bedstraw; Preemergence, Rate 250 g/ha): 10
- Plant response rating, Bedstraw (bedstraw; [5]): 9
- Wild oats plant response rating (wild oat; [1]): 0
- Wild oats plant response rating (wild oat; [6]): 0
- Wild oats plant response rating (wild oat; [2]): 0
- Wild oats plant response rating (wild oat; [3]): 0
- Wild oats plant response rating (wild oat; [4]): 0
- Wild oats plant response rating (0 to 10 scale) (wild oat; Preemergence, Rate 250 g/ha): 2
- Plant response rating, Wild oats (wild oat; [5]): 0
- Corn plant response rating (corn; [1]): 0
- Corn plant response rating (corn; [6]): 0
- Corn plant response rating (corn; [2]): 0
- Corn plant response rating (corn; [7]): 0
- Corn plant response rating (corn; [3]): 0
- Corn plant response rating (corn; [4]): 0
- Corn plant response rating (0 to 10 scale) (corn; Preemergence, Rate 250 g/ha): 0
- Plant response rating, Corn (corn; [5]): 0
- Morningglory plant response rating (morningglory; [1]): 1
- Morningglory plant response rating (morningglory; [6]): 5
- Morningglory plant response rating (morningglory; [3]): 0
- Morningglory plant response rating (morningglory; [4]): 0
- Morningglory plant response rating (0 to 10 scale) (morningglory; Preemergence, Rate 250 g/ha): 0
- Plant response rating, Morningglory (morningglory; [5]): 8
- Giant foxtail plant response rating (giant foxtail; [1]): 0
- Giant foxtail plant response rating (giant foxtail; [6]): 0
- Giant foxtail plant response rating (giant foxtail; [2]): 0
- Giant foxtail plant response rating (giant foxtail; [7]): 9
- Giant foxtail plant response rating (giant foxtail; [3]): 9
- Giant foxtail plant response rating (giant foxtail; [4]): 9
- Giant foxtail plant response rating (0 to 10 scale) (giant foxtail; Preemergence, Rate 250 g/ha): 10
- Plant response rating, Giant foxtail (giant foxtail; [5]): 0
- Redroot pigweed plant response rating (pigweed; [1]): 0
- Redroot pigweed plant response rating (pigweed; [6]): 0
- Redroot pigweed plant response rating (pigweed; [2]): 0
- Redroot pigweed plant response rating (pigweed; [3]): 0
- Redroot pigweed plant response rating (pigweed; [4]): 0
- Redroot pigweed plant response rating (0 to 10 scale) (pigweed; Preemergence, Rate 250 g/ha): 2
- Plant response rating, Redroot pigweed (pigweed; [5]): 2
- Soybean plant response rating (soybean; [1]): 1
- Soybean plant response rating (soybean; [6]): 2
- Soybean plant response rating (soybean; [2]): 2
- Soybean plant response rating (soybean; [3]): 0
- Soybean plant response rating (soybean; [4]): 0
- Soybean plant response rating (0 to 10 scale) (soybean; Preemergence, Rate 250 g/ha): 0
- Plant response rating, Soybean (soybean; [5]): 2
- Blackgrass plant response rating (blackgrass; [1]): 0
- Blackgrass plant response rating (blackgrass; [6]): 0
- Blackgrass plant response rating (blackgrass; [2]): 0
- Blackgrass plant response rating (blackgrass; [7]): 0
- Blackgrass plant response rating (blackgrass; [3]): 0
- Blackgrass plant response rating (blackgrass; [4]): 3
- Blackgrass plant response rating (0 to 10 scale) (blackgrass; Preemergence, Rate 250 g/ha): 3
- Plant response rating, Blackgrass (blackgrass; [5]): 3
- Wheat plant response rating (wheat; [1]): 0
- Wheat plant response rating (wheat; [6]): 0
- Wheat plant response rating (wheat; [2]): 0
- Wheat plant response rating (wheat; [3]): 0
- Wheat plant response rating (wheat; [4]): 0
- Wheat plant response rating (0 to 10 scale) (wheat; Preemergence, Rate 250 g/ha): 0
- Plant response rating, Wheat (wheat; [5]): 2
- Cocklebur plant response rating (cocklebur; [1]): 0
- Cocklebur plant response rating (cocklebur; [6]): 0
- Cocklebur plant response rating (cocklebur; [2]): 0
- Cocklebur plant response rating (cocklebur; [7]): 0
- Cocklebur plant response rating (cocklebur; [3]): 0
- Cocklebur plant response rating (cocklebur; [4]): 0
- Cocklebur plant response rating (0 to 10 scale) (cocklebur; Preemergence, Rate 250 g/ha): 0
- Plant response rating, Cocklebur (cocklebur; [5]): 0
- Velvetleaf plant response rating (velvetleaf; [1]): 0
- Velvetleaf plant response rating (velvetleaf; [6]): 0
- Velvetleaf plant response rating (velvetleaf; [2]): 0
- Velvetleaf plant response rating (velvetleaf; [3]): 0
- Velvetleaf plant response rating (velvetleaf; [4]): 0
- Velvetleaf plant response rating (0 to 10 scale) (velvetleaf; Preemergence, Rate 250 g/ha): 0
- Plant response rating, Velvetleaf (velvetleaf; [5]): 0
